The test relates to Eimeria strains according to the invention. The experiment in a line: Tolerance/sensitivity of the strains to anticoccidial drugs (infection of chickens with the strains and administration of drug). The class given is in vivo. On the procedure:
all four strains are tolerant to two commonly used anticoccidial ionophores: monensin (110 ppm) and salinomycin (60 ppm). The concentrations tested are commonly used concentrations. Specific tolerance levels were determined by infection of chickens with the strains and administration of ionophores.
These four strains are tolerant for 110 ppm of monensin and for 60 ppm of salinomycin, sensitive for 1 ppm of diclazuril (see FIG. 1) and the proliferative capacity of the four strains is decreased to 76000 (see Table 1b).

Structures are written as SMILES.

For the compound `CC[C@@]1([C@@H]2O[C@@H]([C@H]3O[C@@](O)(CO)[C@H](C)C[C@@H]3C)C[C@@H]2C)CC[C@H]([C@]2(C)CC[C@]3(C[C@H](O)[C@@H](C)[C@@H]([C@@H](C)[C@@H](OC)[C@H](C)C(=O)O)O3)O2)O1` [monensin], for the setting “monensin 110 ppm, chickens infected with the strains”, the “tolerance of the strains to monensin” value is recorded as “tolerant”.

For `CC[C@@H](C(=O)[C@@H](C)[C@@H](O)[C@H](C)[C@@H]1O[C@@H]([C@@H](CC)C(=O)O)CC[C@@H]1C)[C@H]1O[C@]2(C=C[C@@H](O)[C@]3(CC[C@@](C)([C@H]4CC[C@](O)(CC)[C@H](C)O4)O3)O2)[C@H](C)C[C@@H]1C` [salinomycin], under “salinomycin 60 ppm, chickens infected with the strains”, the “tolerance of the strains to salinomycin” value is given as “tolerant”.

Turning to `N#CC(c1ccc(Cl)cc1)c1c(Cl)cc(-n2ncc(=O)[nH]c2=O)cc1Cl` (stereo not drawn) [diclazuril], for the setting “diclazuril 1 ppm”, the “sensitivity of the strains to diclazuril” value is “fully sensitive”.

The record behind these values is patent US7247309B2, “Coccidiosis vaccines” (Intervet International B.V., priority 1999, dated 2007).
